What was measured:
[1] = HPLC assay and impurity levels, autoclaved and non-autoclaved samples (Example 7); assay type: physicochemical; settings: standard, no condition given
Experimental: EXAMPLE 7. Characterization of Unbuffered Formulation C Solutions with Nitrogen […] and with the Inclusion of an Antioxidant with or without a Chelating Agent. Development studies were conducted using Formulation C, Example C, and its corresponding placebo formulation. The table below details the composition of Formulation C active formulation and corresponding placebo. The solutions above were prepared by first dissolving the stabilizers in the vehicle (60 mM Tartaric acid) which was pre-prepared in nitrogen sparged water. Once dissolved, the CEM-101 API was then added slowly and allowed to mix until a complete solution was achieved. Formulations prepared were then filled into vials, crimped with an aluminium cap containing a PTFE septum and then autoclaved. Each vial was nitrogen purged prior to crimping. HPLC analyses were performed on both autoclaved and non-autoclaved samples. Refer to results in the table below for summary data on assay and impurities.

[2] = HPLC assay and total impurities of formulations (Example 6); assay type: physicochemical
Experimental: Turbid samples were centrifuged prior to analysis. Total Impurities are assessed by % HPLC peak area.

| Structure (SMILES) | Total Impurities [1] | Total Impurities [2] [% HPLC peak area] |
| --- | --- | --- |
| CC[C@H]1OC(=O)[C@@](C)(F)C(=O)[C@H](C)[C@@H](O[C@@H]2O[C@H](C)C[C@H](N(C)C)[C@H]2O)[C@@](C)(OC)C[C@@H](C)C(=O)[C@H](C)[C@H]2N(CCCCn3cc(-c4cccc(N)c4)nn3)C(=O)O[C@]12C [STD 0.5 mg/mL] | 1.867 |  |
| CC[C@H]1OC(=O)[C@@](C)(F)C(=O)[C@H](C)[C@@H](O[C@@H]2O[C@H](C)C[C@H](N(C)C)[C@H]2O)[C@@](C)(OC)C[C@@H](C)C(=O)[C@H](C)[C@H]2N(CCCCn3cc(-c4cccc(N)c4)nn3)C(=O)O[C@]12C [Preformulation] |  | 2.34 |

From patent US20200276150A1, “PARENTERAL FORMULATIONS OF MACROLIDE ANTIBIOTICS” (Tetard, Inc., priority 2010, published 2020)
